Test results published in PMC12428505, “A Bifunctional SARS-CoV-2 Entry Inhibitor Targeting the Host Protease TMPRSS2 and Viral Spike Protein HR1 Region” (International Journal of Molecular Sciences, 2025).
*1 amine or outer side, *2 acyl side, *3 side chain or, on linkers, in order; H or OH if unused. Where a SMILES comes first, the peptide text is derived from it. [ ]: non-standard residue; d: D form. The star is where a group is joined. PEG24 = NCCOCCOCCOCCOCCOCCOCCOCCOCCOCCOCCOCCOCCOCCOCCOCCOCCOCCOCCOCCOCCOCCOCCOCCOCCC(=O)O; X1 = N=C(N)Nc1ccc(C(=O)Oc2ccc(CC(=O)OCC(=O)*)cc2)cc1; X2 = CN(Cc1cn(CC(=O)[*:2])nn1)[*:1]; X3 = O=C(Cn1cc(CN[*:1])nn1)[*:2]; PEG4 = NCCOCCOCCOCCOCCC(=O)O

The compounds below were run on wild-type SARS-CoV-2 PsV (assay: not given). Settings: 48 h.
With `CC[C@H](C)[C@H](NC(=O)[C@H](CCCNC(=N)N)NC(=O)[C@H](CCSC)NC(=O)[C@H](CC(C)C)NC(=O)[C@H](CCC(=O)O)NC(=O)[C@H](Cc1ccc(O)cc1)NC(=O)[C@@H](NC(=O)[C@H](CCCCN)NC(=O)[C@H](CCC(N)=O)NC(=O)[C@H](CC(C)C)NC(=O)[C@@H](NC(=O)[C@H](Cc1c[nH]c2ccccc12)NC(=O)[C@H](CCC(=O)O)NC(=O)[C@H](CCCCN)NC(=O)[C@H](CC(=O)O)NC(=O)CCOCCOCCOCCOCCNC(=O)Cn1cc(CN(C)C(=O)COC(=O)Cc2ccc(OC(=O)c3ccc(NC(=N)N)cc3)cc2)nn1)[C@@H](C)CC)[C@@H](C)CC)C(=O)N[C@@H](CC(C)C)C(=O)N[C@@H](CC(=O)O)C(=O)N[C@@H](CCC(=O)O)C(=O)N[C@@H](CC(C)C)C(=O)NCC(=O)N[C@@H](Cc1c[nH]cn1)C(=O)N[C@@H](C)C(=O)N[C@@H](CCC(=O)O)C(=O)N[C@@H](C)C(=O)N[C@@H](CO)C(=O)N[C@@H](CCSC)C(=O)N[C@@H](CCCNC(=N)N)C(=O)N[C@H](C(=O)N[C@@H](CCC(=O)O)C(=O)N[C@@H](CC(=O)O)C(=O)N[C@@H](CC(C)C)C(=O)N[C@H](C(=O)N[C@@H](Cc1ccc(O)cc1)C(=O)N[C@@H](CCC(=O)O)C(=O)N[C@@H](Cc1ccccc1)C(=O)N[C@@H](CCSC)C(=O)N[C@@H](CCCCN)C(N)=O)[C@@H](C)CC)C(C)C` [LP4X] (X1-[X2][PEG4]DKEWILQKIYELMRILDELGHAEASMRVEDLIYEFMK-NH2) the IC50 was 400 ± 60 nM.
In the case of `CC[C@H](C)[C@H](NC(=O)[C@H](CCCNC(=N)N)NC(=O)[C@H](CCSC)NC(=O)[C@H](CC(C)C)NC(=O)[C@H](CCC(=O)O)NC(=O)[C@H](Cc1ccc(O)cc1)NC(=O)[C@@H](NC(=O)[C@H](CCCCN)NC(=O)[C@H](CCC(N)=O)NC(=O)[C@H](CC(C)C)NC(=O)[C@@H](NC(=O)[C@H](Cc1c[nH]c2ccccc12)NC(=O)[C@H](CCC(=O)O)NC(=O)[C@H](CCCCN)NC(=O)[C@H](CC(=O)O)NC(=O)CCOCCOCCOCCOCCNC(=O)Cn1cc(CNC(=O)COC(=O)Cc2ccc(OC(=O)c3ccc(NC(=N)N)cc3)cc2)nn1)[C@@H](C)CC)[C@@H](C)CC)C(=O)N[C@@H](CC(C)C)C(=O)N[C@@H](CC(=O)O)C(=O)N[C@@H](CCC(=O)O)C(=O)N[C@@H](CC(C)C)C(=O)NCC(=O)N[C@@H](Cc1c[nH]cn1)C(=O)N[C@@H](C)C(=O)N[C@@H](CCC(=O)O)C(=O)N[C@@H](C)C(=O)N[C@@H](CO)C(=O)N[C@@H](CCSC)C(=O)N[C@@H](CCCNC(=N)N)C(=O)N[C@H](C(=O)N[C@@H](CCC(=O)O)C(=O)N[C@@H](CC(=O)O)C(=O)N[C@@H](CC(C)C)C(=O)N[C@H](C(=O)N[C@@H](Cc1ccc(O)cc1)C(=O)N[C@@H](CCC(=O)O)C(=O)N[C@@H](Cc1ccccc1)C(=O)N[C@@H](CCSC)C(=O)N[C@@H](CCCCN)C(N)=O)[C@@H](C)CC)C(C)C` [LP4Z] (X1-[X3][PEG4]DKEWILQKIYELMRILDELGHAEASMRVEDLIYEFMK-NH2), the IC50 is reported as 450 ± 200 nM.
Work on `CC[C@H](C)[C@H](NC(=O)[C@H](CCCNC(=N)N)NC(=O)[C@H](CCSC)NC(=O)[C@H](CC(C)C)NC(=O)[C@H](CCC(=O)O)NC(=O)[C@H](Cc1ccc(O)cc1)NC(=O)[C@@H](NC(=O)[C@H](CCCCN)NC(=O)[C@H](CCC(N)=O)NC(=O)[C@H](CC(C)C)NC(=O)[C@@H](NC(=O)[C@H](Cc1c[nH]c2ccccc12)NC(=O)[C@H](CCC(=O)O)NC(=O)[C@H](CCCCN)NC(=O)[C@H](CC(=O)O)NC(=O)CCOCCOCCOCCOCCOCCOCCOCCOCCOCCOCCOCCOCCOCCOCCOCCOCCOCCOCCOCCOCCOCCOCCOCCOCCNC(=O)Cn1cc(CN(C)C(=O)COC(=O)Cc2ccc(OC(=O)c3ccc(NC(=N)N)cc3)cc2)nn1)[C@@H](C)CC)[C@@H](C)CC)C(=O)N[C@@H](CC(C)C)C(=O)N[C@@H](CC(=O)O)C(=O)N[C@@H](CCC(=O)O)C(=O)N[C@@H](CC(C)C)C(=O)NCC(=O)N[C@@H](Cc1c[nH]cn1)C(=O)N[C@@H](C)C(=O)N[C@@H](CCC(=O)O)C(=O)N[C@@H](C)C(=O)N[C@@H](CO)C(=O)N[C@@H](CCSC)C(=O)N[C@@H](CCCNC(=N)N)C(=O)N[C@H](C(=O)N[C@@H](CCC(=O)O)C(=O)N[C@@H](CC(=O)O)C(=O)N[C@@H](CC(C)C)C(=O)N[C@H](C(=O)N[C@@H](Cc1ccc(O)cc1)C(=O)N[C@@H](CCC(=O)O)C(=O)N[C@@H](Cc1ccccc1)C(=O)N[C@@H](CCSC)C(=O)N[C@@H](CCCCN)C(N)=O)[C@@H](C)CC)C(C)C` [LP24X] (X1-[X2][PEG24]DKEWILQKIYELMRILDELGHAEASMRVEDLIYEFMK-NH2) yielded an IC50 of 320 ± 30 nM.
Work on `CC[C@H](C)[C@H](NC(=O)[C@H](CCCNC(=N)N)NC(=O)[C@H](CCSC)NC(=O)[C@H](CC(C)C)NC(=O)[C@H](CCC(=O)O)NC(=O)[C@H](Cc1ccc(O)cc1)NC(=O)[C@@H](NC(=O)[C@H](CCCCN)NC(=O)[C@H](CCC(N)=O)NC(=O)[C@H](CC(C)C)NC(=O)[C@@H](NC(=O)[C@H](Cc1c[nH]c2ccccc12)NC(=O)[C@H](CCC(=O)O)NC(=O)[C@H](CCCCN)NC(=O)[C@H](CC(=O)O)NC(=O)CCOCCOCCOCCOCCOCCOCCOCCOCCOCCOCCOCCOCCOCCOCCOCCOCCOCCOCCOCCOCCOCCOCCOCCOCCNC(=O)Cn1cc(CNC(=O)COC(=O)Cc2ccc(OC(=O)c3ccc(NC(=N)N)cc3)cc2)nn1)[C@@H](C)CC)[C@@H](C)CC)C(=O)N[C@@H](CC(C)C)C(=O)N[C@@H](CC(=O)O)C(=O)N[C@@H](CCC(=O)O)C(=O)N[C@@H](CC(C)C)C(=O)NCC(=O)N[C@@H](Cc1c[nH]cn1)C(=O)N[C@@H](C)C(=O)N[C@@H](CCC(=O)O)C(=O)N[C@@H](C)C(=O)N[C@@H](CO)C(=O)N[C@@H](CCSC)C(=O)N[C@@H](CCCNC(=N)N)C(=O)N[C@H](C(=O)N[C@@H](CCC(=O)O)C(=O)N[C@@H](CC(=O)O)C(=O)N[C@@H](CC(C)C)C(=O)N[C@H](C(=O)N[C@@H](Cc1ccc(O)cc1)C(=O)N[C@@H](CCC(=O)O)C(=O)N[C@@H](Cc1ccccc1)C(=O)N[C@@H](CCSC)C(=O)N[C@@H](CCCCN)C(N)=O)[C@@H](C)CC)C(C)C` [LP24Z] (X1-[X3][PEG24]DKEWILQKIYELMRILDELGHAEASMRVEDLIYEFMK-NH2) yielded an IC50 of 330 ± 10 nM.
For “Ac-DKEWILQKIYELMRILDELGHAEASMRVEDLIYEFMK-NH2 [LCB1T, reference compound]”, the IC50 was 440 ± 40 nM.

What follows are compounds tested on wild-type SARS-CoV-2 PsV (assay: microbe, parasite or virus in culture). Settings: Severe acute respiratory syndrome coronavirus 2, Caco-2.
`CN(C)C(=O)COC(=O)Cc1ccc(OC(=O)c2ccc(NC(=N)N)cc2)cc1` [Camostat] was tested, and the IC50 was 4600 ± 2320 nM.
